What was measured:
[1] = water solubility of the isolated product; format: physicochemical; conditions: isolated white powder
[2] = pH of the isolated product; format: physicochemical; conditions: isolated white powder

water solubility [1]	pH [2]	SMILES
water-soluble	6.4	C=CC1CCN(Sc2cc3c(N(C)c4ccc(CC)cc4)ncnc3c(C)c2OCCC)CC1 [Compound V-1]
water-soluble	6.4	C=CC1CCN(C(=O)Oc2cc3c(N(C)c4ccc(CC)cc4)ncnc3c(C)c2OCC)CC1 [II-1]
water-soluble	6.4	C#CC1CCN(Nc2c(OC)cc3ncnc(N(C)c4ccc(C)cc4)c3c2CC)CC1 [III-1]
